Experimental data from paper PMC12703733, “Probing Guanidino Pendant or Bridged Groups in Cyclic Antimicrobial Peptides Derived from Temporin L: A Strategy to Improve Efficacy against Gram-Negative Bacteria” (Journal of Medicinal Chemistry, 2025).
Values after ≈ are worked out from the molar mass of the structure shown. Read-outs that look alike come from different tables or passages of the source. Bridge positions count the residues as written; N and C are the ends. Square brackets hold non-standard residues; d marks the D form. Peptide text beside a SMILES is read from it. Pro(cis-4-guanidino) = NC(N)=N[C@@H]1CN[C@H](C(=O)O)C1

Columns and labels:
in vitro = in vitro ADME
Protocol: Peptide stability was evaluated by modifying previously described procedures. , The assays were performed in human serum and in the presence of proteolytic enzymes such as trypsin and chymotrypsin. For human serum stability, 2 mM peptide stock solutions were prepared in water and mixed with human serum (from male AB plasma, USA origin, sterile-filtered, Merck/Sigma-Aldrich, USA) to obtain a final concentration of 200 μM [human plasma/stock solution (9:1, v/v)]. The mixtures were incubated at 37 ± 1 °C, and 50 μL aliquots were taken at predetermined time intervals (0, 1, 2, 4, 8, and 24 h). Protease activity was quenched by adding 100 μL of acetonitrile (MeCN). The resulting cloudy suspensions were cooled to 4 °C for 30 min and centrifugated at 12,000 rpm for 10 min to remove the serum proteins. Then, the supernatants were analyzed by analytical HPLC (Shimadzu Nexera Liquid Chromatograph LC-30AD) which was equipped with a Phenomenex Kinetex reversed-phase column (C18, 5 μm, 100 Å, 150 mm × 4.6 mm) with a flow rate of 1 mL/min using a gradient of MeCN (0.1% TFA) in water (0.1% TFA), from 10 to 70% over 15 min, and UV detection at 220 nm. For enzyme stability, each peptide peptide (200 μM) was incubated with trypsin (0.5 μM) in PBS 1× (pH 7.2) or with chymotrypsin (0.005 μM) in Tris–HCl (100 mM, pH 7.8). Samples (50 μL) were collected at 0, 1, 2, 4, and 24 h, quenched with 0.5% TFA in water, and analyzed by HPLC under chromatographic conditions as described above. All experiments were conducted in triplicate. The percentage of intact peptides at each time point was determined by integrating the corresponding HPLC peak areas.

[1] = format: cell-based, human; settings: human; for viability at 2 h, 3.12 µM / viability at 2 h, 6.25 µM / viability at 2 h, 12.5 µM / viability at 2 h, 25 µM / viability at 2 h, 50 µM / viability at 2 h, 100 µM / viability at 24 h, 3.12 µM / viability at 24 h, 6.25 µM / viability at 24 h, 12.5 µM / viability at 24 h, 25 µM / viability at 24 h, 50 µM / viability at 24 h, 100 µM: Cell viability (%)
Protocol: (§1) For the evaluation of peptides’ cytotoxicity, the human immortalized keratinocytes (HaCaT cells), purchased from AddexBio (San Diego, CA, USA), and BEAS-2B were used. HaCaT cells were cultured in Dulbecco’s modified Eagle’s medium supplemented with 4 mM glutamine (DMEM), 10% heat-inactivated fetal bovine serum (FBS), and 0.1 mg/mL of penicillin and streptomycin, at 37 °C and 5% CO2. BEAS-2B cells were cultured in RPMI, supplemented with 2 mM glutamine (DMEM), 10% heat-inactivated fetal bovine serum (FBS), 1 mM sodium pyruvate, and 0.1 mg/mL of penicillin and streptomycin, at 37 °C and 5% CO2. Cytotoxicity was tested in vitro using a colorimetric assay that relies on the intracellular reduction of the yellow 3-(4,5-dimethylthiazol-2-yl)-2,5-diphenyltetrazolium bromide salt (MTT) by mitochondrial dehydrogenases of metabolically active cells in formazan crystals (purple). About 4 × 10^4 HaCaT and BEAS-2B cells, suspended in DMEM supplemented with 2% FBS, were plated in triplicate wells of a 96-well microtiter plate. The plate was incubated overnight at 37 °C and 5% CO2. Then, the cells were treated with different concentrations of the peptide (from 100 to 3.12 μM) in a fresh serum-free medium for 2 h and for a longer time (24 h). Following peptide treatment, the medium was removed, and MTT (0.5 mg/mL) solution in Hank’s buffer (136 mM NaCl, 4.2 mM Na2HPO4, 4.4 mM KH2PO4, 5.4 mM KCl, 4.1 mM NaHCO3, pH 7.2, supplemented with 20 mM D-glucose) was added to each well of the plate, that was then incubated for 4 h at 37 °C and 5% CO2. The purple formazan crystals were dissolved using acidified 2-propanol and a microplate reader (Infinite M200; Tecan, Salzburg, Austria) was used to measure the absorbance of each well at 570 nm. The percentage of cell viability was calculated compared to the control, which consisted of cells without any peptide treatment (corresponding to 100% viability) and all data represent the mean of three independent experiments ± SEM.

circular dichroism = settings: water; pH ns; 25 °C; 150 uM
[2] = format: cell-based; settings: for viability at 12.5 µM: cell viability
Protocol: as §1

E. coli D21 = assay: microbe, parasite or virus in culture; format: cell-based; settings: D21
Protocol: (§2) Bacterial strains used in this study were the Gram-positive S. aureus ATCC 25923, S. epidermidis ATCC 12228, B. megaterium BM11, S. [NT] 27591, E. faecalis ATCC 29212 and the Gram-negative E. coli ATCC 25922, P. aeruginosa ATCC 27853, A. baumannii ATCC 19606, E. coli D21 and P. aeruginosa PAO1. […] Bacterial cells in the mid log phase were diluted in Muller Hinton (MH) at a concentration of 2 × 10^6 cell/mL. […] Ciprofloxacin was used as antibiotic control. The plate was then incubated at 37 °C. MICs were obtained from three identical readings of four independent experiments.

S. agalactiae ATCC 27591 = assay: microbe, parasite or virus in culture; format: cell-based; settings: ATCC 27591
Protocol: as §2

P. aeruginosa ATCC 27853 = assay: microbe, parasite or virus in culture; format: cell-based; settings: ATCC 27853
Protocol: as §2

A. baumannii ATCC 19606 = assay: microbe, parasite or virus in culture; format: cell-based; settings: ATCC 19606
Protocol: as §2

B. megaterium BM11 = assay: microbe, parasite or virus in culture; format: cell-based; settings: BM11
Protocol: as §2

E. coli ATCC 25922 = assay: microbe, parasite or virus in culture; format: cell-based; settings: ATCC 25922
Protocol: as §2

E. faecalis ATCC 29212 = assay: microbe, parasite or virus in culture; format: cell-based; settings: ATCC 29212
Protocol: as §2

S. aureus ATCC 25923 = assay: microbe, parasite or virus in culture; format: cell-based; settings: ATCC 25923
Protocol: as §2

[3] = tested on: S. epidermidis ATCC 12228; assay: microbe, parasite or virus in culture; format: cell-based; settings: ATCC 12228
Protocol: as §2

[4] = background value; cited from earlier work
[5] = isolated enzyme chymotrypsin, pH 7.8
[6] = isolated enzyme trypsin, pH 7.2

SMILES	remaining at 4 h, 200 μM (in vitro; [5])	remaining at 4 h, 200 μM (in vitro; [6])	CC50 at 24 h [1]	viability at 2 h, 3.12 µM [1]	viability at 2 h, 6.25 µM [1]	viability at 2 h, 12.5 µM [1]	viability at 2 h, 25 µM [1]	viability at 2 h, 50 µM [1]	viability at 2 h, 100 µM [1]	viability at 24 h, 3.12 µM [1]	viability at 24 h, 6.25 µM [1]	viability at 24 h, 12.5 µM [1]	viability at 24 h, 25 µM [1]	viability at 24 h, 50 µM [1]	viability at 24 h, 100 µM [1]	helicity (circular dichroism)	viability at 2 h, 3.12 µM ([2]; Cell viability (%))	viability at 2 h, 6.25 µM ([2]; Cell viability (%))	viability at 2 h, 12.5 µM ([2]; Cell viability (%))	viability at 2 h, 25 µM ([2]; Cell viability (%))	also measured
CC[C@H](C)[C@H](NC(=O)[C@H](CCCNC(=N)N)NC(=O)[C@H]1CCC(=O)NCCCC[C@H](NC(=O)[C@H](Cc2ccccc2)NC(=O)[C@H](Cc2c[nH]c3ccccc23)NC(=O)[C@@H]2C[C@H](NC(=N)N)CN2C(=O)[C@@H](NC(=O)[C@@H](N)Cc2ccccc2)C(C)C)C(=O)N[C@@H](CCCCN)C(=O)N[C@@H](Cc2ccccc2)C(=O)N[C@H](CC(C)C)C(=O)N1)C(=O)N[C@@H](CC(C)C)C(N)=O [Peptide 7, FV(4-guanidino)PWF[KKFle]RIL] (H-FV[Pro(cis-4-guanidino)]WFKKF[dL][dE]RIL-NH2; lactam 6-10)	~20%	10%	37 µM	101%	100%	102%	72%	16%	8%	99 ± 5%	98 ± 1%	95 ± 4%	85 ± 2%	18 ± 3%	2 ± 1%	1%	105%	117%	80%	28%	viability at 2 h, 50 µM ([2]; Cell viability (%)): 6%; viability at 24 h, 3.12 µM ([2]; Cell viability (%)): 111%; viability at 24 h, 6.25 µM ([2]; Cell viability (%)): 104%; viability at 24 h, 12.5 µM ([2]; Cell viability (%)): 90%; viability at 24 h, 25 µM ([2]; Cell viability (%)): 34%; viability at 24 h, 50 µM ([2]; Cell viability (%)): 9%; viability at 24 h, 100 µM ([2]; Cell viability (%)): 4%; viability at 12.5 µM [2]: ~85%; MIC (E. coli D21): 3.12 µM (≈ 5.49 µg/mL); MIC (S. agalactiae ATCC 27591): 1.56 µM (≈ 2.75 µg/mL); MIC (P. aeruginosa ATCC 27853): 12.5 µM (≈ 22 µg/mL); MIC (A. baumannii ATCC 19606): 3.12 µM (≈ 5.49 µg/mL); MIC (B. megaterium BM11): 0.78 µM (≈ 1.37 µg/mL); MIC (E. coli ATCC 25922): 3.12 µM (≈ 5.49 µg/mL); MIC (E. faecalis ATCC 29212): 12.5 µM (≈ 22 µg/mL); MIC (S. aureus ATCC 25923): 6.25 µM (≈ 11 µg/mL); MIC [3]: 3.12 µM (≈ 5.49 µg/mL)
CC[C@H](C)[C@H](NC(=O)[C@H](CCCNC(=N)N)NC(=O)[C@H]1CCCCNC(=N)NCCCC[C@H](NC(=O)[C@H](Cc2ccccc2)NC(=O)[C@H](Cc2c[nH]c3ccccc23)NC(=O)[C@@H]2CCCN2C(=O)[C@@H](NC(=O)[C@@H](N)Cc2ccccc2)C(C)C)C(=O)N[C@@H](CCCCN)C(=O)N[C@@H](Cc2ccccc2)C(=O)N[C@H](CC(C)C)C(=O)N1)C(=O)N[C@@H](CC(C)C)C(N)=O [Peptide 12, FVPWF{KKFlk}RIL]	~40%	~80%	19.6 µM	101%	103%	88%	47%	11%	10%	100 ± 1%	101 ± 2%	90 ± 4%	28 ± 4%	2 ± 1%	3 ± 1%	63%	106%	104%	56%	14%	remaining at 24 h, 200 μM (in vitro; [6]): ~35%; viability at 2 h, 50 µM ([2]; Cell viability (%)): 4%; viability at 2 h, 100 µM ([2]; Cell viability (%)): 4%; viability at 24 h, 3.12 µM ([2]; Cell viability (%)): 93%; viability at 24 h, 6.25 µM ([2]; Cell viability (%)): 86%; viability at 24 h, 12.5 µM ([2]; Cell viability (%)): 66%; viability at 24 h, 25 µM ([2]; Cell viability (%)): 14%; viability at 24 h, 100 µM ([2]; Cell viability (%)): 0%; viability at 12.5 µM [2]: ~60%; MIC (E. coli D21): 3.12 µM (≈ 5.45 µg/mL); MIC (S. agalactiae ATCC 27591): 1.56 µM (≈ 2.72 µg/mL); MIC (P. aeruginosa ATCC 27853): 12.5 µM (≈ 21.8 µg/mL); MIC (A. baumannii ATCC 19606): 1.56 µM (≈ 2.72 µg/mL); MIC (B. megaterium BM11): 0.39 µM (≈ 0.681 µg/mL); MIC (E. coli ATCC 25922): 6.25 µM (≈ 10.9 µg/mL); MIC (E. faecalis ATCC 29212): 6.25 µM (≈ 10.9 µg/mL); MIC (S. aureus ATCC 25923): 6.25 µM (≈ 10.9 µg/mL); MIC [3]: 1.56 µM (≈ 2.72 µg/mL)
N=C(N)NCCC[C@H](N)C(=O)O [arginine]																					pK a1 [4]: 2.18; pK a2 [4]: 9.09; pK a3 [4]: 13.20
